Experimental data taken from patent publication US5565462A, “Composition for topical treatment of psoriasis and atopic dermatitis comprising a xanthine derivative” (Teva Pharmaceutical Industries, Ltd., priority 1991, dated 1996).
Entries after “also recorded” stand apart in the source; their conditions may differ.

What was measured:
[1] = tested on: human psoriatic fibroblasts; assay: Inhibition of human psoriatic fibroblast proliferation; assay type: cell-based
Description: PTX and PPF, alone as well as PTX in combination with other drugs were tested.
Human psoriatic fibroblasts were obtained from skin biopsies of 5 individuals with plaque psoriasis. Cells in the 3-7th passages were used for the experiments. Human psoriatic fibroblasts (4×10^3 -6×10^3 cells) were added in 24-well plates and cultured in Dulbecco's Modified Eagle's Medium (DMEM) supplemented with 10% fetal calf serum, 2 mM L-glutamine, 100 u/ml penicillin, 100 μg/ml streptomycin (DMEM+) at 5% CO2 and 95% humidity at 37° C.
After 3 days, medium was replaced with fresh DMEM+(control) or with medium containing various concentrations of compounds alone or in combination with pentoxifylline and incubation was continued for additional 3 days. Stock solutions (10^-1 -10^-2 M) of the compounds tested were made in ethanol. For these compounds special control (DMEM+ with 1% ethanol) was made. The compounds tested together with pentoxifylline were 3-heptanone, 3,3-dimethylbutyric acid, lipoic acid, 1,25-dihydroxyvitamin D3 betamethasone dipropionate and hydrocortisone-17-butyrate.
On the last day of experiments, the medium was aspirated and the cells were obtained by trypsinization. The number of cells in each well was counted by the use of an hemocytometer.
The percentage of inhibition of fibroblast proliferation was calculated according to the formula: [formula] and the results are shown in Tables 3 and 4.

[2] = tested on: human psoriatic skin transplants; assay: Topical treatment of human psoriatic skin transplanted to nude mice (epidermal thickness / acanthosis); assay type: in vivo, human skin on outbred Balb/C nude mice; settings: for Average Improvement (decrease in epidermal thickness) / % Improvement (Decrease in Thickness): 7 days; for Average Improvement (decrease in epidermal thickness): placebo 5%
Source text: Human psoriatic skin from psoriatic patients was transplanted to nude mice essentially according to the method of G. Kreuger et al., Prog. in Dermatol. […] The donors had stable plaque type psoriasis for at least one year preceding biopsy and had not received systemic anti-psoriatic therapy for the 4 weeks preceding biopsy. They had also not received topical therapy or U.V. therapy for the two weeks preceding biopsy. […] In this method the area (A) of the psoriasis in four main body parts (head (H), trunk (T), upper extremities (U) and lower extremities (L)) is assigned a value from 0-6 depending on the extent of psoriasis where O reflects no involvement and 6 reflects 90-100% involvement. The severity of the lesion is assessed based on three parameters: Erythema (E), Desquamation (scaling) (D) and Infiltration (I). The severity of each of these parameters is measured on a scale of 0-4 where 0 is no involvement and 4 is very sever. The total severity score is calculated according to the following formula: […]
Split thickness biopsies of nonpustular psoriatic human tissue, 4×5 cm and 0.4 mm thick were obtained from the edge of established plaques from various donor patients. […] The grafts were allowed to heal for one week prior to topical application of the test preparations.
Outbred Balb/C nude mice, 2 to 3 months of age were used in this study. The mice were obtained from the pathogen free animal breeding facility at the University of Tel Aviv (Israel) and were raised in the pathogen-free animal facility at the Faculty of Medicine, Technion-Israel Institute of Technology, Haifa, Israel.
On the day following the end of treatment the severity of the psoriatic lesion was assessed and then the animals were sacrificed and the entire graft was excised and divided into two equal sections. One section was used to assess changes in the rate of proliferation by autoradiography (tritiated thymidine incorporation) while the other section was sectioned for microscopic histological assessment, including acanthosis and parakeratosis.
In another series of experiments, human psoriatic skin of various severities was transplanted on each of 28 nude mice. The graft area was treated with various preparations as described above.
The treatments were applied as creams and were administered as described above.

[3] = tested on: human peripheral blood mononuclear cells (lymphocytes); assay: Inhibition of the mitogenic (PHA) stimulation of human lymphocytes (PBMC), [3H]thymidine; assay type: cell-based; settings: for inhibition at 1000 µM / inhibition at 300 µM: Homo sapiens, Lymphocyte, lymphocytes from healthy volunteers, read-out: net inhibitory effect on the mitogenic stimulation of human lymphocytes; for inhibition at 1000 µM: 1 × 10^-3 M; for inhibition at 300 µM: 3 × 10^-4 M
Description: Buffy coats from the Beilinson Medical Center Blood Bank or 20 mL samples of heparinized venous blood from healthy or atopic donors were used as a source for human peripheral blood mononuclear (PBM) cells. PBM cells were separated by Ficoll-Hypaque density gradient centrifugation. […] The nonadhering cells were stirred gently and carefully collected.
PHA (1 μg/mL), indomethacin (5 μg/mL) and various xanthine derivatives were added at initiation of culture. Indomethacin was dissolved in ethanol. […] [methyl-^3 H]Thymidine (1 μCi/well) was added at 68 h, and the cells were harvested 4 h later using an automated cell harvester (Dynatech, Alexandria, Va.). Unless otherwise stated, all cultures were performed in triplicate.

psoriasis lesions = assay: Clinical trial in psoriasis, 5% dyphylline cream vs placebo, PASI; assay type: in vivo, human patients; settings: for % Decrease in PASI: 5% dyphylline cream, n = 33
Description: Two similar plaque areas of psoriasis (i.e. both legs or forearms), were selected for treatment in each patient. In each patient one area on one side of the body was treated with 2% pentoxifylline formulated as in Example 1 and the other area on the other side of the body was treated with placebo cream formulated identically but without the pentoxifylline. The cream (formulation A in Example 1) was applied by the patient twice daily.
The dermatological assessment was performed as follows. The dermatologist measured the area of the lesion in cm^2. The severity of each lesion was evaluated by grading erythema, scaling and thickness on a 0-4 scale where 0=none, 1=slight, 2=moderate, 3=severe and 4=exceptionally severe.
Based on these measurements the Psoriasis Area Severity Index (PASI) was calculated for each of the 2 lesions on each patient as follows:
PASI=Area x (Erythema+Thickness+Scaling)
In a different series of tests 5% dyphylline cream was applied in the same vehicle that had been used to apply PTX cream. Thus the formulation used in this series of tests was the same as in Example 1 with the exception that 5% dyphylline was used in place of 2% pentoxifylline. The design of the trial was similar in all respects to the clinical trial of PTX described in Example 5 except that the number of patients was 33.

[4] = tested on: peripheral blood mononuclear cells (PBMC); settings: Ravid et al. 1990; cited from earlier work
[5] = additional drug 10^-7 M with PTX 10^-4 M
[6] = additional drug 10^-3 M with PTX 10^-3 M
[7] = additional drug 10^-3 M with PTX 10^-4 M
[8] = additional drug 10^-4 M with PTX 10^-3 M
[9] = additional drug 10^-4 M with PTX 10^-4 M

C=C1/C(=C\C=C2/CCC[C@]3(C)[C@@H]([C@H](C)CCCC(C)(C)O)CC[C@@H]23)C[C@@H](O)C[C@@H]1O [1,25(OH)2 D3, 1,25-dihydroxyvitamin D3]
% Inhibition of Proliferation [1, 5]: 49.5%

CCCCCC(C)=O [2-Heptanone]
% Inhibition of Proliferation [1, 6]: 45%
% Inhibition of Proliferation [1, 7]: 18.6%
% Inhibition of Proliferation [1, 8]: 26.4%
% Inhibition of Proliferation [1, 9]: 21.0%
% Inhibition of Proliferation ([1]; additional drug 10^-5 M with PTX 10^-3 M): 21.3%

CC(C)(C)CC(=O)O [3,3dimethyl butyricacid, 3,3-dimethylbutyric acid]
% Inhibition of Proliferation [1, 6]: 21%
% Inhibition of Proliferation [1, 7]: 36.3%
% Inhibition of Proliferation [1, 8]: 17.2%
% Inhibition of Proliferation [1, 9]: 19.3%

CCC(=O)OCC(=O)[C@@]1(OC(=O)CC)[C@@H](C)C[C@H]2[C@@H]3CCC4=CC(=O)C=C[C@]4(C)[C@@]3(F)[C@@H](O)C[C@@]21C [Betamethasone dipropionate, betamethasone dipropionate]
% Inhibition of Proliferation [1, 8]: 77.5%
% Inhibition of Proliferation [1, 9]: 55.8%
% Inhibition of Proliferation [1, 5]: 43.1%

CCC(=O)O[C@]1(C(=O)CCl)[C@@H](C)C[C@H]2[C@@H]3CCC4=CC(=O)C=C[C@]4(C)[C@@]3(F)[C@@H](O)C[C@@]21C [Clobetasol propionate]
Average Improvement (decrease in epidermal thickness) ([2]; 0.05% clobetasol propionate (Dermovate)): 35%
% Improvement (Decrease in Thickness) ([2]; 0.05% clobetasol propionate, donor patient 1 (PASI 3.2)): 45%
% Improvement (Decrease in Thickness) ([2]; 0.05% clobetasol propionate, donor patient 3 (PASI 7.6)): 41%
% Improvement (Decrease in Thickness) ([2]; 0.05% clobetasol propionate, donor patient 4 (PASI 17.6)): 55%
% Improvement (Decrease in Thickness) ([2]; 0.05% clobetasol propionate, donor patient 5 (PASI 31.3)): 0%
Epidermal Thickness (Acanthosis) after 7 days treatment ([2]; 0.05% clobetasol propionate, donor patient 1 (PASI 3.2), before treatment 44 μm): 24 μm
Epidermal Thickness (Acanthosis) after 7 days treatment ([2]; 0.05% clobetasol propionate, donor patient 3 (PASI 7.6), before treatment 46 μm): 27 μm
Epidermal Thickness (Acanthosis) after 7 days treatment ([2]; 0.05% clobetasol propionate, donor patient 4 (PASI 17.6), before treatment 54 μm): 24 μm
Epidermal Thickness (Acanthosis) after 7 days treatment ([2]; 0.05% clobetasol propionate, donor patient 5 (PASI 31.3), before treatment 35 μm): 47 μm

Cn1c(=O)c2c(ncn2CC(O)CO)n(C)c1=O (centres unmarked) [Dyphylline]
inhibition at 1000 µM [3]: 24%
inhibition at 300 µM [3]: 12%
SUCCESS RATIO (decrease of at least 15% in epidermal thickness) ([2]; 8% dyphylline, 7 days topical, placebo 0/6): 0/2
% Improvement (Decrease in Thickness) ([2]; 8% dyphylline, donor patient 1 (PASI 3.2)): 0%
% Improvement (Decrease in Thickness) ([2]; 8% dyphylline, donor patient 5 (PASI 31.3)): 0%
Average Improvement (decrease in epidermal thickness) ([2]; 8% dyphylline): 0%
Epidermal Thickness (Acanthosis) after 7 days treatment ([2]; 8% dyphylline, donor patient 1 (PASI 3.2), before treatment 44 μm): 65 μm
Epidermal Thickness (Acanthosis) after 7 days treatment ([2]; 8% dyphylline, donor patient 5 (PASI 31.3), before treatment 35 μm): 45 μm
effectiveness in treating psoriasis (in words) ([2]; experiment of Table 1, transplanted skin): virtually inactive
effectiveness in treating psoriasis (in words) ([2]; experiment of Table 2, 28 nude mice): inactive
effectiveness of treatment of psoriasis (in words) (psoriasis lesions; 5% dyphylline cream vs placebo): nearly ineffective with respect to placebo; also recorded: virtually inactive in the treatment of psoriasis
% Decrease in PASI (psoriasis lesions; 1 week, placebo 12.4): 12.6%
% Decrease in PASI (psoriasis lesions; 2 weeks, placebo 30.0): 25.9%
% Decrease in PASI (psoriasis lesions; 4 weeks, placebo 21.5): 28.0%
% Decrease in PASI (psoriasis lesions; 6 weeks, placebo 15.6): 26.5%

O=C(O)CCCCC1CCSS1 (centres unmarked) [Lipoicacid, lipoic acid]
% Inhibition of Proliferation [1, 8]: 50.2%
% Inhibition of Proliferation [1, 9]: 14.5%

CCCn1cnc2c1c(=O)n(CCCCC(C)=O)c(=O)n2C [Propentofylline, 3-methyl-7-propyl-1-(5-oxohexyl)-xanthine]
inhibition at 1000 µM ([1]; Homo sapiens, Fibroblast, compound alone, 10^-3 M, Table 4): 39 ± 7%
inhibition at 100 µM ([1]; Homo sapiens, Fibroblast, compound alone, 10^-4 M, Table 4): 20.3 ± 6.6%
inhibition at 1000 µM [3]: 89%
inhibition at 300 µM [3]: 88%
inhibition of the mitogenic stimulation compared with the other xanthine derivatives (in words) ([3]; vs theophylline and diphylline, healthy volunteers): inhibited the mitogenic stimulation to a far greater effect than the other xanthine derivatives

Cn1c(=O)c2[nH]cnc2n(C)c1=O [Theophylline]
inhibition at 1000 µM [3]: 59%
inhibition at 300 µM [3]: 37%

C[C@@H]1C[C@H]2[C@@H]3CCC4=CC(=O)C=C[C@]4(C)[C@@]3(F)[C@@H](O)C[C@]2(C)[C@@]1(O)C(=O)CO [dexamethasone]
inhibition of mitogenic stimulation of PBMC (in words) [4]: inhibited the mitogenic stimulation of PBMC
